Measured values as given in ChEMBL document CHEMBL6074667, “Discovery and Optimization of First-in-Class Molecular Glue Degraders of the WIZ Transcription Factor for Fetal Hemoglobin Induction to Treat Sickle Cell Disease” (J Med Chem, 2024).
Converted amounts (≈) assume the structure as drawn.

Experiments:
[1] = Bioavailability last in C57BL/6 mouse; type: ADME, organism-based; conditions: in vivo
[2] = Apparent permeability across apical to basolateral side in low efflux MDCK cells assessed as drug recovery at 10 uM incubated for 2 hrs by LC-MS analysis; type: ADME, cell-based, Canis lupus familiaris; conditions: dog, read-out: Drug recovery
[3] = Volume of distribution at steady state in C57BL/6 mouse at 1 mg/kg, iv; type: ADME, organism-based; conditions: in vivo, read-out: Vdss
[4] = Solubility of compound in potassium phosphate buffer at pH 6.8 incubated for 16 to 24 hrs by high-throughput Agilent Rapidfire-MS/MS analysis; type: physicochemical; conditions: time 16-24 hrs
[5] = Protein binding in human plasma; type: ADME, cell-free; conditions: read-out: PPB (converted)
[6] = target: T1, Protein cereblon/Protein Wiz (Homo sapiens, UniProt Q96SW2+O95785); assay: Molecular glue activity at CRBN/WIZ in human CD34-positive derived primary erythroblast cells assessed as induction of WIZ degradation by measuring maximal efficacy measured after 24 hrs by flow cytometric analysis relative to control; type: cell-based
T1 sequence (O95785 whole entry, looked up): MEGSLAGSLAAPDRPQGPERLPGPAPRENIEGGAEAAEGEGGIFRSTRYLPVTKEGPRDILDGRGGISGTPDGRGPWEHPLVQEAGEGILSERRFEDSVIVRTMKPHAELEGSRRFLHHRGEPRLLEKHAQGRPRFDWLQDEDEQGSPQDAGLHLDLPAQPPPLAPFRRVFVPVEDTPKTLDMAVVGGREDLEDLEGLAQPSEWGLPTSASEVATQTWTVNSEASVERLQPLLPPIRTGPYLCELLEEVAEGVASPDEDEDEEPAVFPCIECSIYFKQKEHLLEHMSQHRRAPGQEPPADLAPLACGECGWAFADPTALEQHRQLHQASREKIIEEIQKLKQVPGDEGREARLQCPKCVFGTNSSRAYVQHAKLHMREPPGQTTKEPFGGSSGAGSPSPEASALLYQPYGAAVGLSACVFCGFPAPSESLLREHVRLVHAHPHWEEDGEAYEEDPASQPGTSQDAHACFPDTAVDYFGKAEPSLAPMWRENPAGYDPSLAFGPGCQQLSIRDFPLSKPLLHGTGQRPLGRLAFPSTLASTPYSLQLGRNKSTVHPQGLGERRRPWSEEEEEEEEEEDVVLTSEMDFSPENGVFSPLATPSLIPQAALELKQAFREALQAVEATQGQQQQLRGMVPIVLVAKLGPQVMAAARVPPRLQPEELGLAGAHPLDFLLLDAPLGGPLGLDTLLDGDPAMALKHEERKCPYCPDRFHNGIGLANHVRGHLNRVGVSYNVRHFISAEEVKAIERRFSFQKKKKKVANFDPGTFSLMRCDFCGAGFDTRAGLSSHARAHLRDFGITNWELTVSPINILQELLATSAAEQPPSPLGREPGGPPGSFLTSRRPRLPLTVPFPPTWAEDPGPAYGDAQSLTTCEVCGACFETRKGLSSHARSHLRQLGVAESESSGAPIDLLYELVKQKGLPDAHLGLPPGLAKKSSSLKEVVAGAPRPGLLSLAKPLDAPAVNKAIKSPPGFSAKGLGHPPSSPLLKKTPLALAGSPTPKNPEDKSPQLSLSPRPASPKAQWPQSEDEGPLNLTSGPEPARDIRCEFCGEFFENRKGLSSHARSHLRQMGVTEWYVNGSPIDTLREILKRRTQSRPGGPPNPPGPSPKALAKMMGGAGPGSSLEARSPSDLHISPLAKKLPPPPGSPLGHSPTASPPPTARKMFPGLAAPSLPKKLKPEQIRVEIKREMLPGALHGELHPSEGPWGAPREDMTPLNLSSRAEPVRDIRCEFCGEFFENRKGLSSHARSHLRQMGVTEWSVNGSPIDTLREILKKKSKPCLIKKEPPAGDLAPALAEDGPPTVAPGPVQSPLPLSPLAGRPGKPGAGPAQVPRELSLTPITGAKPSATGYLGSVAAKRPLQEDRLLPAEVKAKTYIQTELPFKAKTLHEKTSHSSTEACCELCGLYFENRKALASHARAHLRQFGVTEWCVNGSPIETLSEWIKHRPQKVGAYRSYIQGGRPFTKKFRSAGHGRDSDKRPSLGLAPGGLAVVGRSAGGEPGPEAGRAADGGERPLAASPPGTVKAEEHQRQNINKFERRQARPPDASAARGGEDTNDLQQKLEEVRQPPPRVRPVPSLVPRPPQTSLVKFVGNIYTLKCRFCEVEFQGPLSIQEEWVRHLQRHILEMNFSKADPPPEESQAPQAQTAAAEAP
T1 sequence (Q96SW2 whole entry, looked up): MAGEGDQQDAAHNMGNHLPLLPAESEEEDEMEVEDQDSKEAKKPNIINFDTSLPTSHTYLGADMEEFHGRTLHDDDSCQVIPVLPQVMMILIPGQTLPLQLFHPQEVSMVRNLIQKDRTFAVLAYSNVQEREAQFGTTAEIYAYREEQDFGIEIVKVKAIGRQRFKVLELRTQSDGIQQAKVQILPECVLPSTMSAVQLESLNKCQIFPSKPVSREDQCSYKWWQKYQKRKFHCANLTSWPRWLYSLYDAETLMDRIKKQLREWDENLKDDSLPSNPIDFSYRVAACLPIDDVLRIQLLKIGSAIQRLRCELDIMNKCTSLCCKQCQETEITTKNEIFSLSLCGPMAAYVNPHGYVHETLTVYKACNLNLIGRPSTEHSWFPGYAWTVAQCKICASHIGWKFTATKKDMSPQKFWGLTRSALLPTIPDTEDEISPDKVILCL

[7] = target: T2, Protein cereblon/Sal-like protein 4 (Homo sapiens, UniProt Q96SW2+Q9UJQ4); assay: Molecular glue activity at CRBN/HiBiT-tagged SALL4 (unknown origin) expressed in human GripTite 293 MSR cells assessed as induction of SALL4 degradation incubated for 20 hrs by Nano-Glo HiBiT-Lytic reagent based luminescence plate reader analysis relative to control; type: cell-based; parameters: concentration or dose not given beside the values
Target sequence in this assay (Q96SW2 whole entry, looked up): as above
Target sequence in this assay (Q9UJQ4 whole entry, looked up): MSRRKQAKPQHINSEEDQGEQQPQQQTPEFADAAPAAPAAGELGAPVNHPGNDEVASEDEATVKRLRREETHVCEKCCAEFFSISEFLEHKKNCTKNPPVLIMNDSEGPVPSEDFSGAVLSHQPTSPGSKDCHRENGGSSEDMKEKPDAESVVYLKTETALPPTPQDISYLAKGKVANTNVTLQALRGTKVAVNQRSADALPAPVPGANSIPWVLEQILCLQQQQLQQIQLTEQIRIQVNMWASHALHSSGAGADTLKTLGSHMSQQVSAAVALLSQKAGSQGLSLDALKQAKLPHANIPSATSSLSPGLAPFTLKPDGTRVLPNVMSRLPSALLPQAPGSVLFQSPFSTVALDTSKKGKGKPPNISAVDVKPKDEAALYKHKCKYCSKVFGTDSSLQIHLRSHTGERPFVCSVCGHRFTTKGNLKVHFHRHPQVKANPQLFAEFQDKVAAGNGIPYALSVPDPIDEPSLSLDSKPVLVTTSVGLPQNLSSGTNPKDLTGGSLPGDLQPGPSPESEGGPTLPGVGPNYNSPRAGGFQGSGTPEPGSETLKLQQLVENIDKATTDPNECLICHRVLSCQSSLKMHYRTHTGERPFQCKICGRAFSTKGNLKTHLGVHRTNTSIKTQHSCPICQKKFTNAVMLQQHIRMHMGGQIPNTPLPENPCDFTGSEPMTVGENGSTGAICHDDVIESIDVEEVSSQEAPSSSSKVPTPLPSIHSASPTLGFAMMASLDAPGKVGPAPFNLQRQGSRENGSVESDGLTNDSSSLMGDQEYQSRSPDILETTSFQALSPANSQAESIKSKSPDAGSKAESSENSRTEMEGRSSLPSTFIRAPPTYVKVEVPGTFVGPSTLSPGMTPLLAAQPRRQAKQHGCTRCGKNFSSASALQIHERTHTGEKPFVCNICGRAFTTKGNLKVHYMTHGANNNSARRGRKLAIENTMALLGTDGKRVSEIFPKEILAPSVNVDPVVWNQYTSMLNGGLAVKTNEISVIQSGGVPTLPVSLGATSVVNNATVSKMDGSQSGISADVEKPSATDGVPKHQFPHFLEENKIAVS

Cereblon/Ikaros [8] = target: T3, Cereblon/Ikaros (Homo sapiens, UniProt Q96SW2+Q13422); assay: Molecular glue activity at CRBN/HiBiT-tagged IKZF1 (unknown origin) expressed in human GripTite 293 MSR cells assessed as induction of […] incubated for 20 hrs by Nano-Glo HiBiT-Lytic reagent based luminescence plate reader analysis; type: cell-based
T3 sequence (Q96SW2 whole entry): as the sequence (Q96SW2 whole entry, looked up) above
T3 sequence (Q13422 whole entry): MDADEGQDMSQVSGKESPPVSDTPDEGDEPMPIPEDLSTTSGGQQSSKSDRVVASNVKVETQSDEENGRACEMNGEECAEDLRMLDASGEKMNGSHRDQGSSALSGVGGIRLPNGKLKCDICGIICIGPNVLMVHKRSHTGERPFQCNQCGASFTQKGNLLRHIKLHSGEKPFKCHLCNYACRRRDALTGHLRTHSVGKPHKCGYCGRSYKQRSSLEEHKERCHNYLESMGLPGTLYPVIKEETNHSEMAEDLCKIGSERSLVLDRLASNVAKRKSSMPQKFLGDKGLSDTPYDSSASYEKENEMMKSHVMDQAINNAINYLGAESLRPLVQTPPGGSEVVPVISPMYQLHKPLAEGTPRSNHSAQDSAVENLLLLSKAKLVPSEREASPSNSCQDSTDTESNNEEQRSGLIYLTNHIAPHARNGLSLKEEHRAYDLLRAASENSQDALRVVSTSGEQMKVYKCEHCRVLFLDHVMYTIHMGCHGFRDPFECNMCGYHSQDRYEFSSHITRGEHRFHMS

[9] = Apparent permeability across apical to basolateral side in low efflux MDCK cells at 10 uM incubated for 2 hrs by LC-MS analysis; type: ADME, cell-based, Canis lupus familiaris; conditions: dog
[10] = Toxicity in immunocompromised naive NBSGW mouse xenografted with human CD34 positive HSPC cells assessed as effect on body weight at 1 to 10 mg/kg, po administered once daily for 21 days; type: organism-based; conditions: in vivo, 504 h, dose 1-10 mg/kg, time 21 day
[11] = Tmax in C57BL/6 mouse at 3 mg/kg, po or 1 mg/kg, iv; type: ADME, organism-based; conditions: in vivo
[12] = Half-life in C57BL/6 mouse at 1 mg/kg, iv; type: ADME, organism-based; conditions: in vivo
[13] = AUClast in C57BL/6 mouse at 3 mg/kg, po; type: ADME, organism-based; conditions: in vivo
[14] = target: T4, Protein cereblon/Eukaryotic peptide chain release factor GTP-binding subunit ERF3A (Homo sapiens, UniProt Q96SW2+P15170); assay: Molecular glue activity at CRBN/HiBiT-tagged GSPT1 (unknown origin) expressed in human GripTite 293 MSR cells assessed as induction of GSPT1 degradation incubated for 20 hrs by Nano-Glo HiBiT-Lytic reagent based luminescence plate reader analysis relative to control; type: cell-based; parameters: concentration or dose not given beside the values
Target sequence in this assay (P15170 whole entry, looked up): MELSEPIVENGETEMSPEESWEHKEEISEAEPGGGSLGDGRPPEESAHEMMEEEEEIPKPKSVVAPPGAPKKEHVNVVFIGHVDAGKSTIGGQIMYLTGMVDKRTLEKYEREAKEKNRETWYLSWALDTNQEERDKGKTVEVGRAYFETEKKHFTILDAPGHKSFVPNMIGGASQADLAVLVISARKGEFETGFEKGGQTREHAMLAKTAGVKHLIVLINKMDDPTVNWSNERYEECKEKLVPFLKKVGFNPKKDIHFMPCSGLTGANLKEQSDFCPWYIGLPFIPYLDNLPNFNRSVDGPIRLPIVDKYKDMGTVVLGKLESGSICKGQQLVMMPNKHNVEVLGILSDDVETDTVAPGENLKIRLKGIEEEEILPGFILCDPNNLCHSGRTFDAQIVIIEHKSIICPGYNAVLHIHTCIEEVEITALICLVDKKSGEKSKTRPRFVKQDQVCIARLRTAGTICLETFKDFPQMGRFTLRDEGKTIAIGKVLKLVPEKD
Target sequence in this assay (Q96SW2 whole entry, looked up): as the sequence (Q96SW2 whole entry, looked up) above

[15] = target: T1, Protein cereblon/Protein Wiz; assay: In vivo molecular glue activity at CRBN/WIZ in immunocompromised naive NBSGW mouse xenografted with human CD34 positive HSPC cells assessed as fold increase in Hbf-positive cells in moCD45 negative hCD45negative CD71positive CD235A positive bone marrow cells at 1 to 10 mg/kg, po administered once daily for 21 days by staining based analysis; type: functional, organism-based; conditions: dose 1-10 mg/kg, time 21.0 day
[16] = target: T1, Protein cereblon/Protein Wiz; assay: Molecular glue activity at CRBN/WIZ in human CD34-positive derived primary erythroblast cells assessed as increase in fetal hemoglobin positive cells in CD71+ CD235a+ subpopulation measured after 7 days by flow cytometric analysis relative to control; type: cell-based; conditions: time 7.0 day
[17] = Intrinsic clearance in rat liver microsomes; type: ADME, Microsome; conditions: read-out: CLH
[18] = target: T1, Protein cereblon/Protein Wiz; assay: In vivo molecular glue activity at CRBN/WIZ in immunocompromised naive NBSGW mouse xenografted with human CD34 positive HSPC cells assessed as induction of WIZ degradation in peripheral blood human C19-positive B cells by measuring maximal efficacy at 1 to 10 mg/kg, po administered once daily for 21 days by staining based analysis relative to control; type: functional, organism-based; conditions: dose 1-10 mg/kg, time 21.0 day
[19] = Intrinsic clearance in mouse liver microsomes; type: ADME, Microsome; conditions: read-out: CLH
[20] = target: T4, Protein cereblon/Eukaryotic peptide chain release factor GTP-binding subunit ERF3A; assay: Molecular glue activity at CRBN/HiBiT-tagged GSPT1 (unknown origin) expressed in human GripTite 293 MSR cells assessed as induction of GSPT1 degradation incubated for 20 hrs by Nano-Glo HiBiT-Lytic reagent based luminescence plate reader analysis; type: cell-based
Target sequence in this assay (Q96SW2 whole entry): as the sequence (Q96SW2 whole entry, looked up) above
Target sequence in this assay (P15170 whole entry): as the sequence (P15170 whole entry, looked up) above

[21] = Intrinsic clearance in human liver microsomes; type: ADME, Microsome; conditions: read-out: CLH
[22] = Protein binding in mouse plasma; type: ADME, cell-free; conditions: read-out: PPB (converted)
[23] = target: T1, Protein cereblon/Protein Wiz; assay: In vivo molecular glue activity at CRBN/WIZ in immunocompromised naive NBSGW mouse xenografted with human CD34 positive HSPC cells assessed as induction of WIZ degradation in peripheral blood human […] B cells administered orally once daily for 21 days by staining based analysis; type: functional, organism-based; conditions: route po, time 21.0 day
[24] = Cmax in C57BL/6 mouse at 3 mg/kg, po; type: ADME, organism-based; conditions: in vivo
[25] = target: T1, Protein cereblon/Protein Wiz; assay: Molecular glue activity at CRBN/HiBiT-tagged WIZ (unknown origin) expressed in HEK293T cells assessed as induction of WIZ degradation incubated for 18 hrs by Nano-Glo HiBiT-Lytic reagent based luminescence plate reader analysis relative to control; type: cell-based; parameters: concentration or dose not given beside the values
[26] = Clearance in C57BL/6 mouse at 1 mg/kg, iv; type: ADME, organism-based; conditions: in vivo
Cereblon/Ikaros [27] = target: T3, Cereblon/Ikaros; assay: Molecular glue activity at CRBN/HiBiT-tagged IKZF1 (unknown origin) expressed in human GripTite 293 MSR cells assessed as induction of […] incubated for 20 hrs by Nano-Glo HiBiT-Lytic reagent based luminescence plate reader analysis relative to control; type: cell-based; parameters: concentration or dose not given beside the values
[28] = Protein binding in rat plasma; type: ADME, cell-free; conditions: read-out: PPB (converted)
[29] = target: T2, Protein cereblon/Sal-like protein 4; assay: Molecular glue activity at CRBN/HiBiT-tagged SALL4 (unknown origin) expressed in human GripTite 293 MSR cells assessed as induction of SALL4 degradation incubated for 20 hrs by Nano-Glo HiBiT-Lytic reagent based luminescence plate reader analysis; type: cell-based
Target sequence in this assay (Q96SW2 whole entry): as the sequence (Q96SW2 whole entry, looked up) above
Target sequence in this assay (Q9UJQ4 whole entry): as the sequence (Q9UJQ4 whole entry, looked up) above

SMILES: CCN1CCCC[C@@H]1COc1ccc2c(c1)CN(C1CCC(=O)NC1=O)C2=O (some centres undefined)
- bioavailability [1]: 13%
- recovery at 2 h, 10 µM [2]: 95%
- Vd [3]: 2.2 L/kg
- solubility [4]: 450 µM (≈ 173 µg/mL)
- fraction unbound [5]: > 0.8
- Emax [6]: 74%
- Activity [7]: 50%
- DC50 (Cereblon/Ikaros [8]): > 50 µM
- Papp A→B at 2 h, 10 µM [9]: 1.1 ×10⁻⁶ cm/s
- Activity [10]: Non-toxic
- Tmax [11]: 2.3 h
- half-life [12]: 1.7 h
- AUC(0-t) [13]: 0.713 µM·h
- Activity [14]: < 10%
- fold change (FC) [15]: 5
- Activity [16]: 20%
- microsomal CLint [17]: < 25 µL/min/mg
- Emax [18]: 63%
- microsomal CLint [19]: < 25 µL/min/mg
- DC50 [20]: > 50 µM
- microsomal CLint [21]: < 25 µL/min/mg
- fraction unbound [22]: > 0.8
- Activity [23]: Dose-dependent-effect
- Cmax [24]: 157 nM
- Activity [25]: 82%
- clearance [26]: 22 mL/min/kg
- Activity (Cereblon/Ikaros [27]): < 10%
- fraction unbound [28]: > 0.8
- DC50 [29]: 3.8 µM
